Like-named read-outs stand apart in the source and are kept apart here.
Tests used:
[1] = tested on: Wnt signalling; assay: Wnt-Luciferase Reporter Assay; format: cell-based; details: DLD1-Wnt-Luc cells, 20-22 hours
Experimental: Wnt-Luciferase Reporter Assay
A Wnt dependent cell line (i.e., DLD1 colorectal adenocarcinoma cell line) was transduced with replication incompetent VSV-g pseudotyped lentiviral particles expressing the firefly luciferase gene under the control of minimal cytomegalovirus (mCMV) promoter and tandem repeats of the TCF/LEF transcriptional response element.
DLD1-Wnt-Luc cells were seeded (5000 cells/well) in a 96-well plate (Greiner Bio-One, cat. no. 655098) in Dubelco's Modified Eagle Medium (DMEM, SFBCO/Invitrogen, cat no. 41965-039) supplemented with Fetal Bovine Serum (FBS, 10%, SFBCO/Invitrogen, cat no. 10108-165). After overnight incubation, the media was replaced with OptiMEM (SFBCO/Invitrogen, cat no. 11058-021) supplemented with FBS (0.5%) and non-essential amino acids (1%, SFBCO/Invitrogen, cat no. 11140-035) and the appropriate putative TNKS inhibitor at a final concentration of 10 μM, 3 μM, 1 μM, 0.30 μM, 0.10 μM, 0.030 μM, 0.010 μM and 0 μM with 1% (v/v) final DMSO in double-triplicate wells. Positive control includes the use of XAV-939 (Maybridge, FisherScientific, 3,5,7,8-tetrahydro-2-[4-(trifluoromethyl)phenyl]-4H-thiopyrano[4,3-d]pyrimidin-4-one, cat. no. RF03920, see: Huang et al., Nature, 2009, Vol. 461, pp. 614-620). Cells were incubated for 20-22 hours before assaying for luciferase (first set of triplicates: Wnt activation) and viability (second set of triplicates: cell survival for data normalisation vs Wnt-activation) using ONE-Glo (Promega, cat. no. E6110) and CellTiter-Glo (Promega, cat. no. G7570) reagents consecutively. The assay was measured using a Victor^2 plate reader. The data were normalised to the DMSO control and were expressed as % Wnt activity as a function of inhibitor dose. Dose response curves used to determine IC50 values were Log transformed and analysed by non-linear regression analysis (variable slope) using Prism (GraphPad Software, Inc).

[2] = tested on: COLO320DM cells; assay: Tumour Cell Inhibition Assay (COLO320DM cells); format: cell-based; details: Homo sapiens, COLO 320DM, 120 h, five day exposure, read-out: cell inhibitory SF50 (COLO320DM)
Experimental: (§1) Tumour Cell Inhibition in Colorectal Tumour Cells
(§2) In order to determine the efficacy of acute dosing of putative TNKS inhibitors, five day exposure cell viability assays were carried out. This included the sparse seeding of cells in a 96-well plate followed by continuous dosing of cells over a five day period.
(§3) Appropriate cell lines (HT55, COLO320DM and SW620) were seeded at 500 cells/well in a 96-well plate in MEM (HT55), RPMI (COLO320DM) or DMEM (SW620) supplemented with FBS. After overnight incubation, cells were treated with the appropriate putative TNKS inhibitor in 6 or 10 concentrations ranging from 0 μM to 10 μM at 0.2% final DMSO concentration in appropriate media supplemented with 10% or 0.5% FBS. Dosages were carried out in triplicate. Termination of the assay and measurement of cell viability was achieved by the use of Cell Titre Glo reagent and luminescence measurement on an appropriate plate reader.
(§4) Dose response curves used to determine SF50 values were Log transformed and analysed by non-linear regression analysis (variable slope) using Prism (GraphPad Software, Inc).

[3] = molecular target: T1, TNKS1 (Homo sapiens, UniProt O95271, M1266I); assay: TNKS1/PARP Biochemical Assay
T1 construct: expresses the active PARP domain of TNKS1 as a polyhistidine tagged protein; made in house; host or cells: E. coli Rosetta2(DE3)
T1 sequence (O95271 1112-1317 M1266I): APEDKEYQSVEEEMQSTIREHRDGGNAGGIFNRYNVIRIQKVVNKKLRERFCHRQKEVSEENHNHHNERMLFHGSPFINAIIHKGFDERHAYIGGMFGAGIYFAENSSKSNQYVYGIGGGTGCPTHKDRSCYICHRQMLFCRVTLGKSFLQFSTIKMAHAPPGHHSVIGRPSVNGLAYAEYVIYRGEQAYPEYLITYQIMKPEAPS
Experimental: TNKS1/PARP Biochemical Assay
Tankyrase activity was assayed using a 96-well format HT Universal Chemiluminescent PARP Assay Kit (Trevigen, Inc, cat. no. 4676-096-K) according to the manufacturer's instructions. In short, tankyrase/PARP activity is quantified by the incorporation of biotinylated nicotinamide adenine dinucleotide (biotin-NAD^+) onto the immobilised pseudo substrate, Histone. The extent of poly(Biotin-ADP)ribosylation (PARylation) in the presence of increasing dose of inhibitor is then quantified by binding of streptavidin conjugated horse radish peroxidase (strep-HRP) followed by chemiluminescent detection.
Prior to assay initiation, inhibitor stocks were prepared in aqueous DMSO (10% (v/v)) from 5 millimolar (mM) stock in 100% DMSO (Sigma Aldrich, cat. no. 265855) as 10× concentrations. For the primary assay (i.e., single dose at 1 micromolar (μM) final concentration) this corresponded to 10 μM in 10% DMSO. For IC50 determination, this corresponded to 100 μM, 30 μM, 10 μM, 3.0 μM, 1.0 μM, 0.30 μM, 0.10 μM and 0 μM in 10% DMSO for final concentrations of 10 μM, 3.0 μM, 1.0 μM, 0.30 μM, 0.10 μM, 0.030 μM, 0.010 μM, and 0 μM with 1% (v/v) final DMSO. The assay was initiated by the addition of 10× inhibitor (5 microliters (μL)) or 10% aqueous DMSO (5 μL) to triplicate wells. Twenty microliters of diluted TNKS1 protein (200 nanomolar (nM) final conc.) in PARP buffer (Trevigen, Inc, cat. no. 4671-096-02) was added to each histone coated well, which was previously hydrated with PARP buffer. Triplicate wells with 1% DMSO/buffer alone (no enzyme) were also added as a measure of assay ‘noise’. Positive control for PARP inhibition included the addition of 4-amino-1,8-naphthalimide (Sigma Aldrich, cat. no A0966) in corresponding doses.
The mixture was incubated for 10 minutes at room temperature and the PARylation reaction initiated by the addition of PARP cocktail (25 μL, Trevigen, Inc) containing biotin-NAD^+ (Trevigen, Inc, cat. no. 4670-500-01), activated DNA (Trevigen, Inc, cat. no. 4671-096-06) and PARP buffer. The reaction was incubated for 1.5 hours (for TNKS1) or 1 hour (for PARP1) at room temperature. The reaction mixture was then removed by aspiration and the wells washed (3×200 μL) with phosphate buffered saline containing Triton X-100 (0.1% (v/v), Sigma Aldrich cat. no. T8787). The wells were then washed (3×200 μL) with phosphate buffered saline and then incubated with strep-HRP (50 μL, Trevigen, Inc, cat. no. 4800-30-06) in strep-diluent (1:500 dilution, Trevigen Inc, cat. no. 4671-096-04) for 1 hour at room temperature. The Strep-HRP mixture was then aspirated and the wells washed (3×200 μL) with phosphate buffered saline containing Triton X-100 (0.1% (v/v)) followed by phosphate buffered saline (3×200 μL) and then incubated with PeroxyGlow™ reagent (100 μL, Trevigen, Inc, cat. nos. 4675-096-01, 4675-096-02, room temperature, mixed 1:1).
The amount of light emitted as a result of the peroxidase-chemiluminescent reagent reaction was in proportion to the extent of poly(Biotin-ADP)ribosylation and was immediately measured with a Victor^2 plate reader (Perkin Elmer, luminescence detection assay, luminescent units described as ‘Counts Per Second’ (CPS)). The data were normalised to the DMSO control after subtraction of ‘noise’ and was expressed as % PARP activity as a function of inhibitor dose. Inhibition was expressed as 100%−(% PARP activity). Dose response curves used to determine IC50 values were Log transformed and analysed by non-linear regression analysis (variable slope) using Prism (GraphPad Software, Inc) and were presented as IC50 with 95% confidence interval to determine relative potency.
Tankyrase1 (pNIC-Bsa4-TNKS1^PARP) expression construct was obtained from the Structural Genomics Consortium (SGC) and expresses the active PARP domain of TNKS1 as a polyhistidine tagged protein. […]

[4] = tested on: HT55 cells; assay: Tumour Cell Inhibition Assay (HT55 cells); format: cell-based; details: Homo sapiens, HT55, 120 h, read-out: cell inhibitory SF50 (HT55)
Experimental: as §1, §2, §3, §4

[5] = Tumour Cell Inhibition Assay, five day exposure

| Structure (SMILES) | IC50 [1] [nM] | IC50 [2] [µM] | IC50 [3] [nM] | IC50 [4] [µM] | IC50 [4, 5] [µM] |
| --- | --- | --- | --- | --- | --- |
| Cc1nnc(NCc2ccc(-c3cc4c(C#N)cccc4c(=O)[nH]3)cc2)o1 [IQ-045, 3-{4-[5-Methyl-[1,3,4-oxadiazol-2-ylamino)methyl]phenyl}-1-oxo-1,2-dihydroisoquinoline-5-carbonitrile] | < 300 | < 5 | < 50 |  |  |
| N#Cc1cccc2c(=O)[nH]c(-c3ccc(CN4CCNCC4)cc3)cc12 [IQ-050, 1-Oxo-3-(4-piperazin-1-ylmethyl-phenyl)-1,2-dihydro-isoquinoline-5-carbonitrile] | < 300 |  |  |  |  |
| N#Cc1cccc2c(=O)[nH]c(-c3ccc(Cn4cccn4)cc3)cc12 [IQ-021] | < 300 |  | < 50 |  |  |
| N#Cc1cccc2c(=O)[nH]c(-c3ccc(CN4CC5CCC(C4)N5)cc3)cc12 [IQ-003] | < 300 | < 5 | < 100 |  |  |
| COCCN1CCN(C(=O)c2ccc(-c3cc4c(C#N)cccc4c(=O)[nH]3)cc2)CC1 [IQ-035] | < 300 | < 5 | < 50 |  |  |
| N#Cc1cccc2c(=O)[nH]c(-c3ccc(N4CCNCC4)cc3)cc12 [IQ-054] |  |  | < 50 | < 5 |  |
| CN1CCN(C(=O)Cc2ccc(-c3cc4c(C#N)cccc4c(=O)[nH]3)cc2)CC1 [IQ-037] | < 300 | < 5 | < 50 |  |  |
| CN1CCCN(Cc2ccc(-c3cc4c(C#N)cccc4c(=O)[nH]3)cc2)CC1 [IQ-048] |  | < 5 | < 50 |  | < 5 |
| CN1CCN(C(=O)Cc2ccc(-c3cc4c(C#N)cc(F)cc4c(=O)[nH]3)cc2)CC1 [IQ-036] | < 300 | < 5 | < 50 |  |  |
| N#Cc1cccc2c(=O)[nH]c(-c3ccc(N4CCNCC4)nc3)cc12 [IQ-052] | < 300 | < 5 | < 100 |  |  |
| Cc1nnc(C2CCN(Cc3ccc(-c4cc5c(C#N)cccc5c(=O)[nH]4)cc3)CC2)o1 [IQ-041] | < 300 |  | < 50 | < 5 |  |
| CN1CCC(N(C)C(=O)c2ccc(-c3cc4c(C#N)cccc4c(=O)[nH]3)cc2)CC1 [IQ-005] | < 300 | < 5 | < 50 |  |  |
| N#Cc1cccc2c(=O)[nH]c(-c3ccc(Cn4ccnc4CO)cc3)cc12 [IQ-015, 3-[4-(2-Hydroxymethyl-imidazol-1-ylmethyl)-phenyl]-1-oxo-1,2-dihydro-isoquinoline-5-carbonitrile] |  | < 5 | < 50 |  | < 5 |
| N#Cc1cccc2c(=O)[nH]c(-c3ccc(Cn4nccn4)cc3)cc12 [IQ-027] | < 300 | < 5 | < 100 |  |  |
| N#Cc1cccc2c(=O)[nH]c(-c3cnc(N4CCN(C(=O)C5CC5)CC4)nc3)cc12 [IQ-007, 3-[2-(4-Cyclopropanecarbonyl-piperazin-1-yl)-pyrimidin-5-yl]-1-oxo-1,2-dihydro-isoquinoline-5-carbonitrile] | < 300 |  | < 50 |  |  |
| N#Cc1cccc2c(=O)[nH]c(-c3ccc(C(=O)N4CCNCC4)cc3)cc12 [IQ-004, 1-Oxo-3-[4-(piperazine-1-carbonyl)-phenyl]-1,2-dihydro-isoquinoline-5-carbonitrile] |  |  | < 50 |  | < 5 |
| N#Cc1cccc2c(=O)[nH]c(-c3ccc(Cn4ccnc4N)cc3)cc12 [IQ-018] | < 300 | < 5 | < 50 |  | < 5 |

— US9611223B2, “3-aryl-5-substituted-isoquinolin-1-one compounds and their therapeutic use” (INSTITUTE OF CANCER RESEARCH: ROYAL CANCER HOSPITAL (THE), priority 2013, dated 2017)
